Data taken from the supplement of paper PMC10307832.

Tests used:
Experiment in all cases: relative viability (nuclei count vs DMSO), 5 days (fraction); higher = more cells survive
EMC-BAC-2 = test system: EMC-BAC-2
Procedure, shortened: (§1)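 Relative viability equals treated-well nuclei counts divided by vehicle-well nuclei counts. Counts came from 4× images of lung cancer cell lines grown in 1536-well plates for 5 days after pin-tool dosing on the day after seeding. Dosing used one drug alone or a fixed anchor-drug dose plus five library-drug doses (not always all listed) in √10 steps, and values are medians of duplicate plates.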

EPLC-272H = test system: EPLC-272H
Procedure, shortened: as §1

HCC-78 = test system: HCC-78
Procedure, shortened: as §1

HCC-827 = test system: HCC-827
Procedure, shortened: as §1

LCLC-103H = test system: LCLC-103H
Procedure, shortened: as §1

LK-2 = test system: LK-2
Procedure, shortened: as §1

LOU-NH91 = test system: LOU-NH91
Procedure, shortened: as §1

LU99A = test system: LU99A
Procedure, shortened: as §1

LXF-289 = test system: LXF-289
Procedure, shortened: as §1

NCI-H1563 = test system: NCI-H1563
Procedure, shortened: as §1

NCI-H1666 = test system: NCI-H1666
Procedure, shortened: as §1

NCI-H1975 = test system: NCI-H1975
Procedure, shortened: as §1

NCI-H2085 = test system: NCI-H2085
Procedure, shortened: as §1

NCI-H2126 = test system: NCI-H2126
Procedure, shortened: as §1

NCI-H23 = test system: NCI-H23
Procedure, shortened: as §1

NCI-H2405 = test system: NCI-H2405
Procedure, shortened: as §1

NCI-H3122 = test system: NCI-H3122
Procedure, shortened: as §1

NCI-H322M = test system: NCI-H322M
Procedure, shortened: as §1

RERF-LC-KJ = test system: RERF-LC-KJ
Procedure, shortened: as §1

SK-LU-1 = test system: SK-LU-1
Procedure, shortened: as §1

SW 1573 = test system: SW 1573
Procedure, shortened: as §1

CC1(C)CCC(c2ccc(Cl)cc2)=C(CN2CCN(c3ccc(C(=O)NS(=O)(=O)c4ccc(N[C@H](CCN5CCOCC5)CSc5ccccc5)c(S(=O)(=O)C(F)(F)F)c4)cc3)CC2)C1 [Navitoclax] + C[C@]1(O)C[C@@H](c2nc(-c3ccc4ccc(-c5ccccc5)nc4c3)c3c(N)nccn32)C1 [Linsitinib] (partner 1 µM)
relative viability (EMC-BAC-2; first compound 0.005 µM): 0.759
relative viability (EMC-BAC-2; first compound 0.01581 µM): 0.895
relative viability (EMC-BAC-2; first compound 0.05 µM): 0.809
relative viability (EMC-BAC-2; first compound 0.1581 µM): 0.78
relative viability (EMC-BAC-2; first compound 0.5 µM): 0.83
relative viability (EPLC-272H; first compound 0.005 µM): 1.29
relative viability (EPLC-272H; first compound 0.1581 µM): 1.26
relative viability (EPLC-272H; first compound 0.5 µM): 0.997
relative viability (HCC-78; first compound 0.005 µM): 0.468
relative viability (HCC-78; first compound 0.01581 µM): 0.604
relative viability (HCC-78; first compound 0.1581 µM): 0.523
relative viability (HCC-78; first compound 0.5 µM): 0.576
relative viability (HCC-827; first compound 0.005 µM): 0.91
relative viability (HCC-827; first compound 0.01581 µM): 0.989
relative viability (HCC-827; first compound 0.05 µM): 0.864
relative viability (HCC-827; first compound 0.1581 µM): 0.926
relative viability (HCC-827; first compound 0.5 µM): 0.928
relative viability (LCLC-103H; first compound 0.005 µM): 1.07
relative viability (LCLC-103H; first compound 0.01581 µM): 1.19
relative viability (LCLC-103H; first compound 0.05 µM): 1.09
relative viability (LCLC-103H; first compound 0.1581 µM): 1.03
relative viability (LCLC-103H; first compound 0.5 µM): 1.02
relative viability (LK-2; first compound 0.005 µM): 0.792
relative viability (LK-2; first compound 0.01581 µM): 0.803
relative viability (LK-2; first compound 0.05 µM): 0.805
relative viability (LK-2; first compound 0.1581 µM): 0.51
relative viability (LK-2; first compound 0.5 µM): 0.623
relative viability (LOU-NH91; first compound 0.005 µM): 0.974
relative viability (LOU-NH91; first compound 0.01581 µM): 0.999
relative viability (LOU-NH91; first compound 0.05 µM): 0.933
relative viability (LOU-NH91; first compound 0.1581 µM): 1.02
relative viability (LOU-NH91; first compound 0.5 µM): 0.842
relative viability (LU99A; first compound 0.005 µM): 0.622
relative viability (LU99A; first compound 0.01581 µM): 0.67
relative viability (LU99A; first compound 0.05 µM): 0.444
relative viability (LU99A; first compound 0.1581 µM): 0.543
relative viability (LU99A; first compound 0.5 µM): 0.522
relative viability (LXF-289; first compound 0.005 µM): 0.971
relative viability (LXF-289; first compound 0.01581 µM): 0.974
relative viability (LXF-289; first compound 0.05 µM): 0.84
relative viability (LXF-289; first compound 0.1581 µM): 0.978
relative viability (LXF-289; first compound 0.5 µM): 0.966
relative viability (NCI-H1563; first compound 0.005 µM): 0.99
relative viability (NCI-H1563; first compound 0.01581 µM): 1.13
relative viability (NCI-H1563; first compound 0.05 µM): 1.17
relative viability (NCI-H1563; first compound 0.1581 µM): 1.24
relative viability (NCI-H1563; first compound 0.5 µM): 1.27
relative viability (NCI-H1666; first compound 0.005 µM): 0.923
relative viability (NCI-H1666; first compound 0.01581 µM): 0.954
relative viability (NCI-H1666; first compound 0.05 µM): 0.82
relative viability (NCI-H1666; first compound 0.1581 µM): 0.705
relative viability (NCI-H1666; first compound 0.5 µM): 0.829
relative viability (NCI-H1975; first compound 0.005 µM): 1.01
relative viability (NCI-H1975; first compound 0.01581 µM): 1.14
relative viability (NCI-H1975; first compound 0.05 µM): 1.07
relative viability (NCI-H1975; first compound 0.1581 µM): 0.869
relative viability (NCI-H1975; first compound 0.5 µM): 1
relative viability (NCI-H2085; first compound 0.005 µM): 0.828
relative viability (NCI-H2085; first compound 0.01581 µM): 0.96
relative viability (NCI-H2085; first compound 0.05 µM): 0.831
relative viability (NCI-H2085; first compound 0.1581 µM): 1
relative viability (NCI-H2085; first compound 0.5 µM): 0.947
relative viability (NCI-H2126; first compound 0.005 µM): 0.708
relative viability (NCI-H2126; first compound 0.01581 µM): 0.748
relative viability (NCI-H2126; first compound 0.05 µM): 0.786
relative viability (NCI-H2126; first compound 0.1581 µM): 0.661
relative viability (NCI-H2126; first compound 0.5 µM): 0.725
relative viability (NCI-H23; first compound 0.005 µM): 0.628
relative viability (NCI-H23; first compound 0.01581 µM): 0.691
relative viability (NCI-H23; first compound 0.05 µM): 0.559
relative viability (NCI-H23; first compound 0.1581 µM): 0.509
relative viability (NCI-H23; first compound 0.5 µM): 0.642
relative viability (NCI-H2405; first compound 0.005 µM): 0.899
relative viability (NCI-H2405; first compound 0.01581 µM): 1.02
relative viability (NCI-H2405; first compound 0.05 µM): 0.922
relative viability (NCI-H2405; first compound 0.1581 µM): 0.937
relative viability (NCI-H2405; first compound 0.5 µM): 0.88
relative viability (NCI-H3122; first compound 0.005 µM): 1.11
relative viability (NCI-H3122; first compound 0.01581 µM): 1.08
relative viability (NCI-H3122; first compound 0.05 µM): 1.13
relative viability (NCI-H3122; first compound 0.1581 µM): 0.985
relative viability (NCI-H3122; first compound 0.5 µM): 1.02
relative viability (NCI-H322M; first compound 0.005 µM): 0.79
relative viability (NCI-H322M; first compound 0.01581 µM): 0.992
relative viability (NCI-H322M; first compound 0.05 µM): 0.96
relative viability (NCI-H322M; first compound 0.1581 µM): 0.953
relative viability (NCI-H322M; first compound 0.5 µM): 0.921
relative viability (RERF-LC-KJ; first compound 0.005 µM): 0.905
relative viability (RERF-LC-KJ; first compound 0.01581 µM): 0.859
relative viability (RERF-LC-KJ; first compound 0.05 µM): 0.927
relative viability (RERF-LC-KJ; first compound 0.1581 µM): 0.915
relative viability (RERF-LC-KJ; first compound 0.5 µM): 0.904
relative viability (SK-LU-1; first compound 0.005 µM): 1.07
relative viability (SK-LU-1; first compound 0.01581 µM): 1.25
relative viability (SK-LU-1; first compound 0.05 µM): 1.2
relative viability (SK-LU-1; first compound 0.1581 µM): 1.08
relative viability (SK-LU-1; first compound 0.5 µM): 0.773
relative viability (SW 1573; first compound 0.005 µM): 0.856
relative viability (SW 1573; first compound 0.01581 µM): 0.841
relative viability (SW 1573; first compound 0.05 µM): 0.747
relative viability (SW 1573; first compound 0.1581 µM): 0.798
relative viability (SW 1573; first compound 0.5 µM): 0.898
